Structures can show the parent of a compound that is named as a salt. Where two headings read alike, the source gives them in different places.

For this test, the system named is 3T3 L1 fibroblasts. Put plainly: Glucose transport activity assay (14C-2-deoxy-D-glucose uptake). The class given is cell-based. The method, then: Glucose Transport Activity Assay.
Stimulation of the insulin receptor leads to the transport of glucose from the blood into cells, thus modulating blood glucose levels. 3T3 L1 fibroblasts (ATCC) were grown in Dulbecco's modified Eagle's medium (DMEM) with 10% fetal bovine serum (FBS). The cells were plated at a density of 3×10^4 cells/well in 24-well plates. Two days after confluence was reached, the cells were treated for 3 days with 0.5 mM isobutylmethylxanthine (IBMX), 1 μM dexamethasone, and 1.7 μM insulin. The cells were then transferred to DMEM with 10% FBS and supplemented with 1.7μM insulin for 2 more days. The cells were maintained in DMEM with 10% FBS for an additional 4 days. Finally the cells were serum-starved overnight in 0.1% bovine serum albumin (BSA) in DMEM.
The following day, the medium was replaced with 150 mM NaCl, 1.7 mM KCl, 0.9 mM CaCl2, K2HPO4 (pH 7.4) to which were added either the experimental compounds or their vehicle (DMSO). Insulin or its vehicle (0.01% BSA) was diluted in the assay buffer (containing test compound or vehicle, respectively) to final concentration of […]. After incubation for 30 min at 37° C., 5 μCi/ml ^14C-2-deoxy-D-glucose was added, and the incubation was continued for additional 30 min at 37° C. The cells were then washed 3 times with ice-cold PBS/20 mM glucose and lysed in 250 μl of lysis buffer (50 mM HEPES pH 7.6, 1% Triton X-100) for 30 min at room temperature. Radioactivity in the lysate was quantified by scintillation counting.
Once ^14C-2-deoxy-D-glucose is transported into the cell, it is not released. Glucose transport is, therefore, proportional to the amount of radioactivity in the lysate. The concentration of compound necessary to produce an increase in glucose transport to greater than 150% of the vehicle control (generally representing the sum of the standard deviation of the vehicle control plus the largest standard deviation of a test sample) was recorded as the EC (effective concentration). Shown in FIG. 3 is glucose uptake by cells at various concentrations when treated with Compound 13 and Compound 15.

Setting [1] is: Mus musculus, EC (effective concentration) for increase in glucose transport, 14C-2-deoxy-D-glucose, 3T3 L1 cells, read-out: Concentration (μM) to reach >150% activity of vehicle control.
Where [2] appears, read: EC (effective concentration) for increase in glucose transport, 14C-2-deoxy-D-glucose, 3T3 L1 cells, read-out: Concentration (μM) to reach >150% activity of vehicle control.

Take `Cc1ccc(NS(=O)(=O)c2ccc3ccc(NC(=O)Nc4ccc5ccc(S(=O)(=O)Nc6ccc(C)c(C(=O)O)c6)cc5c4)cc3c2)cc1C(=O)O` [Compound 57, 5-{[(7-{[N-(7-{[(3-carboxy-4-methylphenyl)amino]sulfonyl}(2-naphthyl))carbamoyl]amino}(2-naphthyl))sulfonyl]amino}-2-methylbenzoic acid]: the EC (150% of vehicle control) under setting [1] came to 3.2 µM.

As for `O=C(O)Cc1cccc(NS(=O)(=O)c2cc(O)c3ccc(NC(=O)Nc4ccc5c(O)cc(S(=O)(=O)Nc6cccc(CC(=O)O)c6)cc5c4)cc3c2)c1` [Compound 52, 2-[3-({[7-({[7-({[3-(carboxymethyl)phenyl]amino}sulfonyl)-5-hydroxy(2-naphthyl)]amino}carbonylamino)-4-hydroxy-2-naphthyl]sulfonyl}amino)phenyl]acetic acid], under setting [1], the EC (150% of vehicle control) stood at 3.2 µM.

As for `O=C(Nc1ccc2cc(S(=O)(=O)Nc3cc(C(=O)O)cc(C(=O)O)c3)ccc2c1)Nc1ccc2cc(S(=O)(=O)Nc3cc(C(=O)O)cc(C(=O)O)c3)ccc2c1` [Compound 175, 5-{[(6-{[(6-{[(3,5-dicarboxyphenyl)amino]sulfonyl}-2-naphthyl)amino]carbonylamino}-2-naphthyl)sulfonyl]amino}benzene-1,3-dicarboxylic acid], under setting [1], the EC (150% of vehicle control) came out at 3.2 µM.

Consider `O=C(Nc1ccc2c(O)cc(S(=O)(=O)Nc3cccc(C(=O)O)c3Cl)cc2c1)Nc1ccc2c(O)cc(S(=O)(=O)Nc3cccc(C(=O)O)c3Cl)cc2c1` [Compound 59, 3-{[(7-{[N-(7-{[(3-carboxy-2-chlorophenyl)amino]sulfonyl}-5-hydroxy(2-naphthyl))carbamoyl]amino}-4-hydroxy(2-naphthyl))sulfonyl]amino}-2-chlorobenzoic acid], for which the EC (150% of vehicle control) under setting [1] was determined as 32 µM.

Turning to `O=C(Nc1ccc2ccc(S(=O)(=O)Nc3ccc(Cl)c(S(=O)(=O)O)c3)cc2c1)Nc1ccc2ccc(S(=O)(=O)Nc3ccc(Cl)c(S(=O)(=O)O)c3)cc2c1` [Compound 91, 2-chloro-5-{[(7-{[(7-{[(4-chloro-3-sulfophenyl)amino]sulfonyl}(2-naphthyl))amino]carbonylamino}(2-naphthyl))sulfonyl]amino}benzenesulfonic acid], the EC (150% of vehicle control) under setting [1] worked out at 3.2 µM.

As to `N#CN=C(Nc1ccc2ccc(NS(=O)(=O)c3ccc(Cl)c(C(=O)O)c3)cc2c1)Nc1ccc2ccc(NS(=O)(=O)c3ccc(Cl)c(C(=O)O)c3)cc2c1` [Compound 166, 5-({[7-({(1E)-2-aza-1-[(7-{[(3-carboxy-4-chlorophenyl)sulfonyl]amino}(2-naphthyl))amino]-2-cyanovinyl}amino)(2-naphthyl)]amino}sulfonyl)-2-chlorobenzoic acid], the EC (150% of vehicle control) under setting [2] was determined as 3.2 µM.

Take `COC(=O)c1cc(NS(=O)(=O)c2ccc3ccc(NC(=S)Nc4ccc5ccc(S(=O)(=O)Nc6ccc(Cl)c(C(=O)OC)c6)cc5c4)cc3c2)ccc1Cl` [Compound 157, methyl 2-chloro-5-[({7-[({[7-({[4-chloro-3-(methoxycarbonyl)phenyl]amino}sulfonyl)(2-naphthyl)]amino}thioxomethyl)amino](2-naphthyl)}sulfonyl)amino]benzoate]: under setting [1], the EC (150% of vehicle control) is over 32 µM.

`COC(=O)c1cc(S(=O)(=O)Nc2ccc3ccc(NC(=NC#N)Nc4ccc5ccc(NS(=O)(=O)c6ccc(Cl)c(C(=O)OC)c6)cc5c4)cc3c2)ccc1Cl` [Compound 165, methyl 5-[({7-[((1E)-2-aza-1-{[7-({[4-chloro-3-(methoxycarbonyl)phenyl]sulfonyl}amino)(2-naphthyl)]amino}-2-cyanovinyl)amino](2-naphthyl)}amino)sulfonyl]-2-chlorobenzoate]: the EC (150% of vehicle control) under setting [2] turned out to be 3.2 µM.

In the case of `CN=C(Nc1ccc2ccc(NS(=O)(=O)c3ccc(Cl)c(C(=O)OC)c3)cc2c1)Nc1ccc2ccc(NS(=O)(=O)c3ccc(Cl)c(C(=O)OC)c3)cc2c1` [Compound 161, methyl 5-[({7-[((1E)-2-aza-1-{[7-({[4-chloro-3-(methoxycarbonyl)phenyl]sulfonyl}amino)(2-naphthyl)]amino}prop-1-enyl)amino](2-naphthyl)}amino)sulfonyl]-2-chlorobenzoate], under setting [2], the EC (150% of vehicle control) is reported as over 32 µM.

On to `O=C(Nc1ccc2cc(S(=O)(=O)Nc3c(F)c(F)cc(C(=O)O)c3F)ccc2c1)Nc1ccc2cc(S(=O)(=O)Nc3c(F)c(F)cc(C(=O)O)c3F)ccc2c1` [Compound 177, 3-{[(6-{[(6-{[(3-carboxy-2,5,6-trifluorophenyl)amino]sulfonyl}(2-naphthyl))amino]carbonylamino}(2-naphthyl))sulfonyl]amino}-2,4,5-trifluorobenzoic acid], for which the EC (150% of vehicle control) under setting [1] was over 32 µM.

In the case of `O=C(Nc1ccc2ccc(S(=O)(=O)O)cc2c1)Nc1ccc2ccc(S(=O)(=O)Nc3ccc(C(=O)O)c(O)c3)cc2c1` [Compound 34, 2-hydroxy-4-{[(7-{[N-(7-sulfo(2-naphthyl))carbamoyl]amino}(2-naphthyl))sulfonyl]amino}benzoic acid], the EC (150% of vehicle control) under setting [1] was over 32 µM.

With `O=C(Nc1ccc2cc(S(=O)(=O)Nc3cccc(S(=O)(=O)O)c3)ccc2c1)Nc1ccc2cc(S(=O)(=O)Nc3cccc(S(=O)(=O)O)c3)ccc2c1` [Compound 169, 3-{[(6-{[(6-{[(3-sulfophenyl)amino]sulfonyl}-2-naphthyl)amino]carbonylamino}-2-naphthyl)sulfonyl]amino}benzenesulfonic acid], the EC (150% of vehicle control) under setting [1] worked out at 3.2 µM.

For `O=C(Nc1ccc2c(O)cc(S(=O)(=O)Nc3ccc(O)c(C(=O)O)c3)cc2c1)Nc1ccc2c(O)cc(S(=O)(=O)Nc3ccc(O)c(C(=O)O)c3)cc2c1` [Compound 43, 5-{[(7-{[N-(7-{[(3-carboxy-4-hydroxyphenyl)amino]sulfonyl}-5-hydroxy(2-naphthyl))carbamoyl]amino}-4-hydroxy(2-naphthyl))sulfonyl]amino}-2-hydroxybenzoic acid], the EC (150% of vehicle control) under setting [1] amounted to 10 µM.

Regarding `O=C(Nc1ccc2ccc(S(=O)(=O)Nc3ncccn3)cc2c1)Nc1ccc2ccc(S(=O)(=O)Nc3ncccn3)cc2c1` [Compound 79, N-{7-[(pyrimidin-2-ylamino)sulfonyl](2-naphthyl)}({7-[(pyrimidin-2-ylamino)sulfonyl](2-naphthyl)}amino)carboxamide], the EC (150% of vehicle control) under setting [1] is 10 µM.

As to `CN(c1cccc(S(=O)(=O)O)c1)S(=O)(=O)c1ccc2ccc(NC(=O)Nc3ccc4ccc(S(=O)(=O)N(C)c5cccc(S(=O)(=O)O)c5)cc4c3)cc2c1` [Compound 103, 3-{methyl[(7-{[(7-{[methyl(3-sulfophenyl)amino]sulfonyl}(2-naphthyl))amino]-carbonylamino}-(2-naphthyl))sulfonyl]amino}benzenesulfonic acid dipotassium salt], for the setting “Mus musculus, 3T3-L1, read-out: Concentration (μM) to reach >150% activity of vehicle control”, the EC (150% of vehicle control) is 3.2 µM.

For the compound `O=C(Nc1ccc2ccc(S(=O)(=O)Nc3ccc(Br)c(C(=O)O)c3)cc2c1)Nc1ccc2ccc(S(=O)(=O)Nc3ccc(Br)c(C(=O)O)c3)cc2c1` [Compound 56, 2-bromo-5-{[(7-{[N-(7-{[(4-bromo-3-carboxyphenyl)amino]sulfonyl}(2-naphthyl))carbamoyl]amino}(2-naphthyl))sulfonyl]amino}benzoic acid], the EC (150% of vehicle control) under setting [1] was 3.2 µM.

As to `O=C(Nc1ccc2ccc(S(=O)(=O)O)cc2c1)Nc1ccc2ccc(S(=O)(=O)Nc3ccc(O)c(C(=O)O)c3)cc2c1` [Compound 32, 2-hydroxy-5-{[(7-{[N-(7-sulfo(2-naphthyl))carbamoyl]amino}(2-naphthyl))sulfonyl]amino}benzoic acid], the EC (150% of vehicle control) under setting [1] worked out at 32 µM.

Take `C=CCN=C(Nc1ccc2ccc(NS(=O)(=O)c3ccc(Cl)c(C(=O)OC)c3)cc2c1)Nc1ccc2ccc(NS(=O)(=O)c3ccc(Cl)c(C(=O)OC)c3)cc2c1` [Compound 167, methyl 5-[({7-[((1E)-2-aza-1-{[7-({[4-chloro-3-(methoxycarbonyl)phenyl]sulfonyl}amino)(2-naphthyl)]amino}penta-1,4-dienyl)amino](2-naphthyl)}amino)sulfonyl]-2-chlorobenzoate]: the EC (150% of vehicle control) under setting [2] is over 32 µM.

For `COc1ccc(C(=O)O)cc1NS(=O)(=O)c1ccc2ccc(NC(=O)Nc3ccc4ccc(S(=O)(=O)Nc5cc(C(=O)O)ccc5OC)cc4c3)cc2c1` [Compound 66, 3-{[(7-{[(7-{[(3-carboxy-6-methoxyphenyl)amino]sulfonyl}(2-naphthyl))amino]carbonylamino}(2-naphthyl))sulfonyl]amino}-4-methoxybenzoic acid], the EC (150% of vehicle control) under setting [1] came out at 3.2 µM.
